Experimental data published in article PMC7700423, “Differential Effects of 1α,25-Dihydroxyvitamin D3 on the Expressions and Functions of Hepatic CYP and UGT Enzymes and Its Pharmacokinetic Consequences In Vivo” (Pharmaceutics, 2020).

Tests used:
[1] = Pharmacokinetics of BUP and HBUP after intravenous BUP in rats; type: in vivo, rat; settings: for CL renal: plasma and urine; for AUC: n = 6-7; for Vd: read-out: Vss; for Ae0-24h: urine 0-24 h; for Tmax: median (range)
Description: Male Sprague-Dawley (SD) rats (8 weeks, 260–280 g) were purchased from Nara Biotech Co. (Seoul, Korea). Animals were maintained in cages under controlled conditions under a 12-h dark/light cycle with free access to food and tap water, acclimated for at least five days in the laboratory before experiments, and allocated to a control group or 1,25(OH)2D3-treated group. The 1,25(OH)2D3 dosing solution was prepared by diluting 1,25(OH)2D3 in ethanol with 5 mL of corn oil (2.56 nmol/mL of final concentration). The dosing solution for the control group was prepared but the 1,25(OH)2D3 was omitted. The dosing solutions were administered intraperitoneally to rats at a dose of 1 mL/kg/day (2.56 nmol/kg/day as 1,25(OH)2D3) over four consecutive days. On the fifth day, rats were used for pharmacokinetic study.
In vivo pharmacokinetic animal experiments were accomplished according to the Guide for the Care and Use of Laboratory Animals issued by the National Institute of Health, as described previously. Before starting the animal studies, all experimental protocols were reviewed and approved by the Animal Care and Use Committee of Gachon University (Approval no. GIACUC-R2019020; approved on July 1st, 2019). SD male rats (8–9 weeks, 250–300 g, Nara Biotech Co., Seoul, South Korea) had free access to food and water, acclimatized and maintained in the room under a 12-h light/dark cycle for a week before the study. After pretreatment with 1,25(OH)2D3 for 4 continuous days, the rats in the control and 1,25(OH)2D3 groups were anesthetized with Zoletil® (Vibrac, TX, USA) (10 mg/kg i.m.) and then the femoral vein and artery were cannulated with polyethylene tubing (Clay Adams, NJ, USA) for drug administration and blood sampling, respectively, as described previously. The pharmacokinetic experiment was initiated by drug administration after the rats were recovered from anesthesia. […] Approximately 100 μL of blood was collected via the femoral artery at 0, 1, 5, 15, 30, 60, 120, 180, 240, 360, 480, and 600 min after the drug administration. […] Blood samples were collected at 0, 1, 5, 15, 30, 60, 90, 120, 180, 240, 360, and 480 min later and immediately centrifuged at 14,000× g for 15 min at 4 °C. For compensation of fluid loss, a same volume of saline was intravenously provided after each sample collection. Plasma was then separated from whole blood cells and stored at −20 °C for further analysis. Urine samples were collected 0–4, 4–8, and 8–24 h after drug administration. The collected urine samples were diluted with distilled deionized water (DDW) 20-fold prior to LC-MS/MS analysis. […] The weighted tissues were homogenized on ice by an electric homogenizer following adding 2-fold volume of PBS. The homogenates were stored before LC-MS/MS analysis.
(§1) Moreover, CLNR was calculated to subtract CLR from CL.

[2] = Pharmacokinetics of TOL and HTOL after intravenous TOL in rats; type: in vivo, rat; settings: for Vd: read-out: Vss; for Ae0-24h: urine 0-24 h; for Tmax: median (range)
Description: (§2) Male Sprague-Dawley (SD) rats (8 weeks, 260–280 g) were purchased from Nara Biotech Co. (Seoul, Korea). […] The dosing solution for the control group was prepared but the 1,25(OH)2D3 was omitted. […] On the fifth day, rats were used for pharmacokinetic study.
(§3) In vivo pharmacokinetic animal experiments were accomplished according to the Guide for the Care and Use of Laboratory Animals issued by the National Institute of Health, as described previously. […] After pretreatment with 1,25(OH)2D3 for 4 continuous days, the rats in the control and 1,25(OH)2D3 groups were anesthetized with Zoletil® (Vibrac, TX, USA) (10 mg/kg i.m.) and then the femoral vein and artery were cannulated with polyethylene tubing (Clay Adams, NJ, USA) for drug administration and blood sampling, respectively, as described previously. The pharmacokinetic experiment was initiated by drug administration after the rats were recovered from anesthesia. […] Approximately 100 μL of blood was collected via the femoral artery at 0, 1, 5, 15, 30, 60, 120, 180, 240, 360, 480, and 600 min after the drug administration. […] For compensation of fluid loss, a same volume of saline was intravenously provided after each sample collection. Plasma was then separated from whole blood cells and stored at −20 °C for further analysis. […] The collected urine samples were diluted with distilled deionized water (DDW) 20-fold prior to LC-MS/MS analysis. […] The weighted tissues were homogenized on ice by an electric homogenizer following adding 2-fold volume of PBS. The homogenates were stored before LC-MS/MS analysis.
as §1

Cyp2c11 = target: T1, Cyp2c11 (Rattus norvegicus, UniProt P08683); test: Tolbutamide 4-hydroxylation (HTOL formation) in rat liver microsomes; settings: for CLint: n = 3
T1 sequence (P08683 1-500): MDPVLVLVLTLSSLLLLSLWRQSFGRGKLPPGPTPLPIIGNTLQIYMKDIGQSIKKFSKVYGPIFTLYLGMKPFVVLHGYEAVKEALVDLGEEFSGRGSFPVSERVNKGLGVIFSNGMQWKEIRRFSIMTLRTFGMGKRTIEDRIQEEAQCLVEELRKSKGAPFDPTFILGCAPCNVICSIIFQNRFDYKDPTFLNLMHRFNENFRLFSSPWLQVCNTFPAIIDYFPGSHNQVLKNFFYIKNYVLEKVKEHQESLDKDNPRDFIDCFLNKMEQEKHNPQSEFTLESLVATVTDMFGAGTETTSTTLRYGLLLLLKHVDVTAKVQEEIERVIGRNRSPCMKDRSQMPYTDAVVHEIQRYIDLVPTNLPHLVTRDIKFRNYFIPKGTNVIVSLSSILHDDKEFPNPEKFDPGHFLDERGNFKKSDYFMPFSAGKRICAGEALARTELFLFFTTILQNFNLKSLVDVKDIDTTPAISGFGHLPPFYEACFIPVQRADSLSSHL

[3] = Tissue distribution of TOL and HTOL in rats; type: in vivo, rat; settings: for Tissue to plasma concentration ratio (Kp), Liver: n = 4-6
Description: as §2, §3

[4] = i.v. 5 mg/kg BUP, 1,25(OH)2D3-treated rats
[5] = male, Sprague-Dawley, rat, plasma, iv, 5 mg/kg, i.v. 5 mg/kg BUP, 1,25(OH)2D3-treated rats
[6] = male, Sprague-Dawley, rat, plasma, iv, 5 mg/kg, i.v. 5 mg/kg BUP, control rats
[7] = i.v. 2 mg/kg TOL, 1,25(OH)2D3-treated rats
[8] = male, Sprague-Dawley, rat, plasma, iv, 2 mg/kg, i.v. 2 mg/kg TOL, 1,25(OH)2D3-treated rats
[9] = male, Sprague-Dawley, rat, plasma, iv, 2 mg/kg, i.v. 2 mg/kg TOL, control rats
[10] = 8 h after i.v. 2 mg/kg TOL, 1,25(OH)2D3-treated rats
[11] = 8 h after i.v. 2 mg/kg TOL, control rats
[12] = formed metabolite, i.v. 2 mg/kg TOL, 1,25(OH)2D3-treated rats
[13] = formed metabolite, i.v. 2 mg/kg TOL, control rats

For CC(NC(C)(C)C)C(=O)c1cccc(Cl)c1 (stereo not drawn) [BUP, bupropion], the “Renal clearance as portion of total clearance” value ([1]; 1,25(OH)2D3-treated rats) was 1.92%, the “Renal clearance as portion of total clearance” value ([1]; control rats) was 0.7% and the CLNR [1, 4] was 53.55 ± 13.02 mL/min/kg. The CLNR ([1]; i.v. 5 mg/kg BUP, control rats) was 93.08 ± 13.73 mL/min/kg, the CL renal ([1]; male, Sprague-Dawley, rat, iv, 5 mg/kg, i.v. 5 mg/kg BUP, 1,25(OH)2D3-treated rats) was 1.05 ± 0.407 mL/min/kg and the CL renal ([1]; male, Sprague-Dawley, rat, iv, 5 mg/kg, i.v. 5 mg/kg BUP, control rats) was 0.662 ± 0.635 mL/min/kg. For the same compound, the MRT [1, 5] was 1.47 h, the clearance [1, 5] was 54.6 ± 13.4 mL/min/kg and the half-life [1, 5] was 2.24 ± 0.812 h. The AUC ([1]; male, Sprague-Dawley, rat, plasma, iv, 5 mg/kg, i.v. 5 mg/kg BUP, 1,25(OH)2D3-treated rats, read-out: AUC (converted)) was 1610 ng·h/mL, the Vd [1, 5] was 5.4 ± 1.87 L/kg and the MRT [1, 6] was 1.19 h. For the same compound, the clearance [1, 6] was 93.6 ± 14.2 mL/min/kg, the half-life [1, 6] was 2.59 ± 0.432 h and the AUC ([1]; male, Sprague-Dawley, rat, plasma, iv, 5 mg/kg, i.v. 5 mg/kg BUP, control rats, read-out: AUC (converted)) was 906 ng·h/mL. The Vd [1, 6] was 7.82 ± 1.95 L/kg, the Ae0-24h [1, 4] was 1.791 ± 0.031 % of dose and the Ae0-24h ([1]; i.v. 5 mg/kg BUP, control rats) was 0.719 ± 0.613 % of dose.
With CCCCNC(=O)NS(=O)(=O)c1ccc(C)cc1 [TOL, tolbutamide] the CLNR [2, 7] was 0.206 ± 0.045 mL/min/kg, the CLNR ([2]; i.v. 2 mg/kg TOL, control rats) was 0.189 ± 0.030 mL/min/kg and the clearance [2, 8] was 0.206 ± 0.045 mL/min/kg. For the same compound, the half-life [2, 8] was 9.4 ± 3.46 h, the AUC ([2]; male, Sprague-Dawley, rat, plasma, iv, 2 mg/kg, i.v. 2 mg/kg TOL, 1,25(OH)2D3-treated rats, n = 9-10, read-out: AUC (converted)) was 170000 ng·h/mL and the Vd [2, 8] was 0.153 ± 0.0195 L/kg. It also gave an MRT [2, 9] of 11 h, a clearance [2, 9] of 0.189 ± 0.027 mL/min/kg and a half-life [2, 9] of 7.71 ± 2.56 h. The AUC ([2]; male, Sprague-Dawley, rat, plasma, iv, 2 mg/kg, i.v. 2 mg/kg TOL, control rats, n = 9-10, read-out: AUC (converted)) was 180000 ng·h/mL, the Vd [2, 9] was 0.12 ± 0.0156 L/kg and the CL renal ([2]; male, Sprague-Dawley, rat, urine and plasma, iv, 2 mg/kg) was 0.000208 ± 0.000103 mL/min/kg. The Ae0-24h [2, 7] was 0.024 ± 0.016 % of dose, the Ae0-24h ([2]; i.v. 2 mg/kg TOL, control rats) was 0.124 ± 0.059 % of dose and the CLint (Cyp2c11; RLMs from 1,25(OH)2D3-treated rats) was 0.89 ± 0.18 μL/min/mg protein. The CLint (Cyp2c11; RLMs from control rats) was 3.00 ± 0.63 μL/min/mg protein and the “CLint lower in 1,25(OH)2D3-treated rats than in controls” value (Cyp2c11; RLMs, p = 0.0051) was 70%.
With C[C@H]1NC(C)(C)CO[C@]1(O)c1cccc(Cl)c1 [HBUP, hydroxybupropion] the CLR [1, 4] was 0.077 ± 0.031 mL/min/kg, the Cmax [1, 4] was 68 ± 21 ng/mL and the t1/2 [1, 4] was 3.283 ± 0.903 h. For the same compound, the AUC [1, 4] was 329.5 ± 151 ng·h/mL, the CLR ([1]; i.v. 5 mg/kg BUP, control rats) was 0.222 ± 0.124 mL/min/kg and the Cmax ([1]; i.v. 5 mg/kg BUP, control rats) was 46 ± 32 ng/mL. The t1/2 ([1]; i.v. 5 mg/kg BUP, control rats) was 2.673 ± 0.627 h, the AUC ([1]; i.v. 5 mg/kg BUP, control rats) was 76.83 ± 31.63 ng·h/mL and the Tmax [1, 4] was 15 (15–60) min. The Tmax ([1]; i.v. 5 mg/kg BUP, control rats) was 15 min, the Ae0-24h [1, 4] was 0.026 ± 0.008 % of dose and the Ae0-24h ([1]; i.v. 5 mg/kg BUP, control rats) was 0.015 ± 0.007 % of dose.
For CCCCNC(=O)NS(=O)(=O)c1ccc(CO)cc1 [HTOL, 4-hydroxytolbutamide], the “Tissue to plasma concentration ratio (Kp), Brain” value [3, 10] was 0.019 ± 0.004, the “Tissue to plasma concentration ratio (Kp), Heart” value [3, 10] was 0.252 ± 0.036 and the “Tissue to plasma concentration ratio (Kp), Kidney” value [3, 10] was 7.768 ± 0.014. The “Tissue to plasma concentration ratio (Kp), Spleen” value [3, 10] was 0.163 ± 0.008, the “Tissue to plasma concentration ratio (Kp), Liver” value [3, 10] was 0.657 ± 0.129 and the “Tissue to plasma concentration ratio (Kp), Brain” value [3, 11] was 0.020 ± 0.008. The “Tissue to plasma concentration ratio (Kp), Heart” value [3, 11] was 0.175 ± 0.013, the “Tissue to plasma concentration ratio (Kp), Kidney” value [3, 11] was 5.335 ± 1.127 and the “Tissue to plasma concentration ratio (Kp), Spleen” value [3, 11] was 0.137 ± 0.010. The “Tissue to plasma concentration ratio (Kp), Liver” value [3, 11] was 0.831 ± 0.152, the AUC [2, 12] was 2532 ± 867 ng·h/mL and the CLR [2, 12] was 0.873 ± 0.134 mL/min/kg. For the same compound, the AUC [2, 13] was 1680 ± 1090 ng·h/mL, the CLR [2, 13] was 2.713 ± 0.570 mL/min/kg and the Cmax [2, 7] was 207 ± 119 ng/mL. For the same compound, the t1/2 [2, 7] was 10.5 ± 8.193 h, the Cmax ([2]; i.v. 2 mg/kg TOL, control rats) was 167 ± 67 ng/mL and the t1/2 ([2]; i.v. 2 mg/kg TOL, control rats) was 8.688 ± 8.317 h. For the same compound, the Tmax [2, 7] was 120 (60–240) min, the Tmax ([2]; i.v. 2 mg/kg TOL, control rats) was 60 (15–120) min and the Ae0-24h [2, 7] was 5.539 ± 2.305 % of dose. For the same compound, the Ae0-24h ([2]; i.v. 2 mg/kg TOL, control rats) was 9.356 ± 0.471 % of dose.
